Measurements published in patent US20090258942A1 (priority 2008, published 2009).
Values belong to the compound of their own block, whether it stands above or below them.

Assays:
[1] = system: MCF-7 breast cancer xenografts; assay: MCF-7 kidney capsule xenografts; details: 28 days; E2 0.5 mg/h, Calycosin 2.5 mg/h in saline; FIG. 5
Protocol: MCF-7 xenografts were introduced into nude mouse kidneys. Mice were randomized to three treatment groups. […] Each treatment group was treated for 28 days, after which mice were euthanized and the kidneys containing the xenografts were excised, photographed and weighed.

[2] = biological target: ERβ (Homo sapiens, UniProt Q92731); details: in the presence of ERβ
From the text: (§1) Light emission at 560 nm is conveniently quantified in optical density units (O.D.560 nm).

[3] = system: TNF-RE tkLuc; assay: TNF-RE tkLuc reporter, effect of antiestrogens; type: cell-based; details: in contrast to E2
From the text: as §1

[4] = biological target: estrogen receptor beta (ERβ) (Homo sapiens, UniProt Q92731); details: added to (a), (b), (c) or (d); FIGS. 4a-4d
[5] = system: breast cancer; details: among 5129 women in the treatment group; median follow-up 40 months; cited from earlier work
[6] = system: primary invasive breast cancer; details: women at high risk for breast cancer; cited from earlier work
[7] = system: estrogen receptor-positive breast cancer; details: five years of therapy; cited from earlier work

Sequence of estrogen receptor beta (ERβ) (Q92731 whole entry): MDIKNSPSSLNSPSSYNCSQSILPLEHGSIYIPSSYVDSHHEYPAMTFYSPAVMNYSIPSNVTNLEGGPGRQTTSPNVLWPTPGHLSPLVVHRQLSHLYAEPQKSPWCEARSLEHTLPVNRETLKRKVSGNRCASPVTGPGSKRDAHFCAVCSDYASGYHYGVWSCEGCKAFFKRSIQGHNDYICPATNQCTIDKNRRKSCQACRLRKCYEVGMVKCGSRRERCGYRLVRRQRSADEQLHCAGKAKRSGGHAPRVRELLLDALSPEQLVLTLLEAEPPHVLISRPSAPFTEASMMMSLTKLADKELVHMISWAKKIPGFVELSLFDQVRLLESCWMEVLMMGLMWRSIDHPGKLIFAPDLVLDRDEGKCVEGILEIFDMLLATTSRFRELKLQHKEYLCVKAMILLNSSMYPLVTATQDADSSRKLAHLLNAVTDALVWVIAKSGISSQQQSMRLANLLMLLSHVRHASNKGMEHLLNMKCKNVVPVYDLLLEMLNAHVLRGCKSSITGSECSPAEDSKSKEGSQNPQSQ
Sequence of ERβ (Q92731 whole entry): as above

SMILES: COc1ccc(-c2coc3cc(O)ccc3c2=O)cc1O [Calycosin, 3-(4-methoxy-3-hydroxyphenyl)-7-hydroxycoumarin]
growth of MCF-7 kidney capsule xenografts as compared to control [1]: inhibits the growth of MCF-7 breast cancer xenografts

repression of TNF-α activation of TNF-RE tkLuc [2]: 60-80%
SMILES: C[C@]12CC[C@@H]3c4ccc(O)cc4CC[C@H]3[C@@H]1CC[C@@H]2O [E2, estradiol]

SMILES: C[C@]12CC[C@@H]3c4ccc(O)cc4C[C@@H](CCCCCCCCC[S+]([O-])CCCC(F)(F)C(F)(F)F)[C@H]3[C@@H]1CC[C@@H]2O (stereo partly shown) [ICI 182780]
activation of TNF-RE tkLuc [3]: 2 fold

effect of addition on ERE activation by compounds (a)-(d) through ERβ [4]: reduced this activation
SMILES: O=C(c1ccc(OCCN2CCCCC2)cc1)c1c(-c2ccc(O)cc2)sc2cc(O)ccc12 [raloxifene]
activation of TNF-RE tkLuc [3]: 2 fold | cases of breast cancer [5]: 13 cases

SMILES: CC/C(=C(\c1ccccc1)c1ccc(OCCN(C)C)cc1)c1ccccc1 [tamoxifen]
activation of TNF-RE tkLuc [3]: 2 fold | reduction of the risk of primary invasive breast cancer [6]: 49% | reduction of mortality from breast cancer [7]: 22% | reduction of the risk of recurrences [7]: 42%
